Here are results for one compound from patent US6544727B1, “Methods and devices for the removal of psoralens from blood products” (Cerus Corporation, priority 1995, dated 2003).

Data set [1] in a line: Adsorption capacity of Amberlite adsorbents for Psoralens A, B and C from PC (Table V). It counts as physicochemical. The conditions noted are these: batch adsorption. The method, then: Stock solutions (15 mM) of each psoralen ([…], and C) were prepared in DMSO. […] Thereafter, control samples and test samples were prepared for HPLC analysis. Test samples were prepared by adding a 3.0 mL aliquot of each dilution to a 5 mL polypropylene tube containing 0.1 g of adsorbent; control samples were prepared in an analogous manner with the exception that the adsorbent was omitted. The test and control samples were then incubated for 6 hours at 22° C. by rotating gently on a mixer (Barnstead, Thermolyne Model 400110). […] Adsorption data were then obtained by HPLC analysis on the test and control samples. Specifically, a 200 μl sample volume of PC was removed from each tube following the incubation period (special care being taken to ensure that no adsorbent particles were removed with the test samples). […] The addition of methanol lyses platelets and precipitates plasma proteins so that psoralen contained within the platelets is not excluded by the assay. […] The slopes of the calibration curves were determined by linear least square method (y-intercept constrained to zero). […] The amount (μmoles) of psoralen which the adsorbent had removed from the PC was calculated [V(Co-Cf)]. […] As previously discussed, the slope of the adsorbent isotherm, K (L/g), is termed the adsorption constant and can be determined by a linear regression of the adsorption data.

Data set [2] in a line: HPLC retention time as rough estimate of hydrophobicity. Format: physicochemical. The conditions noted are these: C-18 reversed phase, methanol/KH2PO4 gradient. The method, then:
Adsorption data were then obtained by HPLC analysis on the test and control samples. Specifically, a 200 μl sample volume of PC was removed from each tube following the incubation period (special care being taken to ensure that no adsorbent particles were removed with the test samples). […] The addition of methanol lyses platelets and precipitates plasma proteins so that psoralen contained within the platelets is not excluded by the assay.
Since each of the psoralens were analyzed using the same type of BPLC assay, one can use the psoralens' relative retention times to rank them according to increasing hydrophobicity. […] Strong interactions with cells or plasma proteins could compete with adsorption, thereby interfering with resin binding.

Take `CCN(CC)CCCOc1c2occc2c(Br)c2ccc(=O)oc12` [Psoralen C, 5-bromo-8-(diethylaminopropyloxy)-psoralen]: the “ease of removal from PC (in words)” value in data set [1] is recorded as “most easily removed from PC”. Also, in data set [2], the “HPLC retention time (rough estimate of hydrophobicity)” value is on record as 12.0 min.
